Where two headings read alike, the source gives them in different places.
Columns and labels:
[1] = target: P. carinii (Pc) dihydrofolate reductase (Pneumocystis carinii, UniProt P16184); assay: Standardized spectrophotometric DHFR inhibition assay, P. carinii enzyme; type: biochemical; conditions: for IC50: Pc DHFR
[2] = target: T1, T. gondii (Tg) dihydrofolate reductase (Toxoplasma gondii, UniProt Q07422); type: biochemical
[3] = target: M. avium (Ma) dihydrofolate reductase (Mycobacterium avium, UniProt O30463); assay: biochemical
rat liver DHFR = target: T2, rat liver DHFR (Rattus norvegicus, UniProt Q920D2); assay: Standardized spectrophotometric DHFR inhibition assay, rat liver enzyme; type: biochemical
T2 construct: rat liver DHFR; from tissue; host or cells: rat liver
T2 sequence (Q920D2 1-187): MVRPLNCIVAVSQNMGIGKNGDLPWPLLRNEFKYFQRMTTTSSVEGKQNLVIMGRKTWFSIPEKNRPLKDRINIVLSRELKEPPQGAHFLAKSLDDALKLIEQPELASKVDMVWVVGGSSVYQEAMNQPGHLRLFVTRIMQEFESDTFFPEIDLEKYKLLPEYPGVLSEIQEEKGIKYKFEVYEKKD

[4] = target: T1, T. gondii (Tg) dihydrofolate reductase; conditions: cited from earlier work; for IC50: read-out: IC50 against Tg DHFR
[5] = relative to rat liver DHFR, 95% confidence limits in parentheses

Chain of P. carinii (Pc) dihydrofolate reductase (P16184 whole entry): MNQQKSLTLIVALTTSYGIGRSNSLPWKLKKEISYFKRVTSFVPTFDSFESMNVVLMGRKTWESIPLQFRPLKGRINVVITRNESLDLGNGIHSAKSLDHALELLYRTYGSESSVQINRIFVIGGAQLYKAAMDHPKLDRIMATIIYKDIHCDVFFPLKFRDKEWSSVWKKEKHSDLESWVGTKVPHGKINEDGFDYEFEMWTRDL
T1 sequence (Q07422 whole entry): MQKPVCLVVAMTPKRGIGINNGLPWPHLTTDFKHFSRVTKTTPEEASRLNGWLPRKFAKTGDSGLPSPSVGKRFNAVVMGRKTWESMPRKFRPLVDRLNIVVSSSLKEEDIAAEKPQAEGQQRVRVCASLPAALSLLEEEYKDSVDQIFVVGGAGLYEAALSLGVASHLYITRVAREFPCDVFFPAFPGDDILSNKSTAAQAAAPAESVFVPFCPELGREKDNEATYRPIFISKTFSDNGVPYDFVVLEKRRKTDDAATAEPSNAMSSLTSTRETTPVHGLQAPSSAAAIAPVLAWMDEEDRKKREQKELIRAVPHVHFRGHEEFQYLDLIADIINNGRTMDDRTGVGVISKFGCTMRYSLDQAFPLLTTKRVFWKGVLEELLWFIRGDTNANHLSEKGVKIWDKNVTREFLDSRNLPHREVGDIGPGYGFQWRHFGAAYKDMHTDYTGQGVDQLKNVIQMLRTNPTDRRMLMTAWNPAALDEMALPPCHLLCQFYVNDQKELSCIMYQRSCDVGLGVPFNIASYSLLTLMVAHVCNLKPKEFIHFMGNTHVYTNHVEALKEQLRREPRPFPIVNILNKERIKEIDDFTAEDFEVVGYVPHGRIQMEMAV
Chain of M. avium (Ma) dihydrofolate reductase (O30463 1-181): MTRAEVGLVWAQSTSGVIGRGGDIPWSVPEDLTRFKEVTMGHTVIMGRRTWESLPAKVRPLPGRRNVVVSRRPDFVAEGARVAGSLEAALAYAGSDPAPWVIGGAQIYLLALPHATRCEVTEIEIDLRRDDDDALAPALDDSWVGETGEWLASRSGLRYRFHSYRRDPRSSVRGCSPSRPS

Compound | IC50 [1] [µM] | IC50 [2] [µM] | IC50 ([3]; Ma DHFR) [µM] | IC50 (rat liver DHFR) [µM] | IC50 [3] [µM] | IC50 ([2]; Tg DHFR) [µM] | other results
COc1ccc(C#CCCCC(=O)O)cc1Cc1cnc(N)nc1N [Compound 3] | 0.028 | 0.032 | 0.007 | 2.2 |  |  | melting point: 121 to 124 °C
COc1ccc(C#CCOc2cccc(C(=O)O)c2)cc1Cc1cnc(N)nc1N [Compound 11, 2,4-Diamino-5-[2′-methoxy-5′-[3-(3″-carboxyphenoxy)-1-propynyl]benzyl]pyrimidine] | 5.6 | 1.6 |  | 14 | 0.057 |  | 
COc1ccc(CCCCC(=O)O)cc1Cc1cnc(N)nc1N [Compound 5] | 0.15 |  | 0.035 | 3.2 |  | 0.058 | melting point: 134 to 137 °C
COc1ccc(CCCCCC(=O)O)cc1Cc1cnc(N)nc1N [Compound 6] | 0.15 |  | 0.016 | 4.1 |  | 0.0084 | 
COc1cc(Cc2cnc(N)nc2N)cc(C#CCCCC(=O)O)c1OC [Compound 49, 2,4-Diamino-5-[3′,4′-dimethoxy-5′-(5-carboxy-1-pentynyl)benzyl]-pyrimidine] | 0.001 |  |  | 5000 | 0.0024 |  | 
CCc1nc(N)nc(N)c1-c1ccc(Cl)c(N=NN2CCOCC2)c1 [Compound 37] |  |  |  |  |  |  | SI against Tg DHFR [4]: 37: R^1R^2 = morpholino (IC50 = 0.19 μM, SI = 140)^18; IC50 [4]: 0.19 µM
COc1ccc(CCCCCCC(=O)O)cc1Cc1cnc(N)nc1N [Compound 7] | 0.53 | 0.03 |  | 4.6 | 0.089 |  | 
COc1ccc(OCCCCC(=O)O)cc1Cc1cnc(N)nc1N [Compound 1b, reference compound] |  | 0.11 | 0.058 |  |  |  | 
COc1ccc(C#CCCC(=O)O)cc1Cc1cnc(N)nc1N [Compound 2] |  |  |  |  |  | 0.097 | 
Nc1nc(N)c2nc(CN3c4ccccc4C=Cc4ccccc43)cnc2n1 [Compound 40] |  |  |  |  |  |  | SI against Tg DHFR [4]: 40: R = N-Dibenz[b,f]azepinyl (IC50 = 0.043 μM, SI = 102)^3g
COc1ccc(OCc2ccc(C(=O)O)cc2)cc1Cc1cnc(N)nc1N [Compound 9, 2,4-Diamino-5-(2′-methoxy-5′-(4″-carboxybenzyloxy)benzyl]pyrimidine] |  |  | 0.06 | 21 |  | 2 | 
COc1ccc(C#CCCCCC(=O)O)cc1Cc1cnc(N)nc1N [Compound 4] | 0.87 | 0.072 |  | 25 | 0.041 |  | melting point: 187 to 189 °C
CCc1nc(N)nc(N)c1-c1ccc(Cl)c(N=NN(C)C)c1 [Compound 38] |  |  |  |  |  |  | IC50 ([4]; literature compounds of Table 2, standardized assay conditions): 0.31 µM; SI against Tg DHFR ([4]; literature compounds of Table 2, Tg versus rat DHFR): 61
COc1ccc(C#CCOc2ccccc2C(=O)O)cc1Cc1cnc(N)nc1N [Compound 10, 2,4-Diamino-5-[2′-methoxy-5′-[3-(2″-carboxyphenoxy)propyn-1-yl]benzyl]pyrimidine] | 2.3 |  |  | 6.2 | 0.036 | 0.5 | Selectivity Index (SI) P. carinii [1, 5]: 2.7 (2.1-3.5); Selectivity Index (SI) T. gondii [2, 5]: 13 (9.3-17); Selectivity Index (SI) M. avium [3]: 170 (130-230)
COc1ccc(OCc2cccc(C(=O)O)c2)cc1Cc1cnc(N)nc1N [Compound 8, 2,4-Diamino-5-[2′-methoxy-5′-(3″-carboxybenzyloxy)benzyl]pyrimidine] | 0.89 | 0.6 |  | 19 | 0.12 |  | 
